Entries after “also recorded” stand apart in the source; their conditions may differ.
Tests used:
[1] = Interconversion between Enantiomer 1 and Enantiomer 2 in cell medium (chiral LC/MS-MS); assay type: physicochemical; settings: 0.2 μM dosed enantiomer, cell medium 37° C.
Protocol: For the assessment of interconversion between Enantiomer 1 and Enantiomer 2 in cell medium, the following test was performed. […] At designated time point, aliquot (50 μL) was taken and processed by the addition of 150 μL of acetonitrile containing 0.1% formic acid and internal standard for LC/MS-MS analysis. Peak areas of both Enantiomer 1 and Enantiomer 2 were determined for each sample using a chiral specific analytical method.

[2] = target: T1, BRD9 (Homo sapiens, UniProt Q9H8M2); assay: Pharmacodynamic BRD9 level in SYO-1 xenograft, western blot (Example 14); assay type: in vivo, mice; parameters: Tumors were lysed with 1×RIPA lysis buffer; from tissue; host or cells: SYO-1 xenograft tumours in BALB/c Nude mice; settings: SYO-1 Xenograft model; for pharmacodynamic activity, BRD9 protein level by western blot: BALB/c Nude mice, single dose i.v. (Table 6)
T1 sequence (Q9H8M2 1-597): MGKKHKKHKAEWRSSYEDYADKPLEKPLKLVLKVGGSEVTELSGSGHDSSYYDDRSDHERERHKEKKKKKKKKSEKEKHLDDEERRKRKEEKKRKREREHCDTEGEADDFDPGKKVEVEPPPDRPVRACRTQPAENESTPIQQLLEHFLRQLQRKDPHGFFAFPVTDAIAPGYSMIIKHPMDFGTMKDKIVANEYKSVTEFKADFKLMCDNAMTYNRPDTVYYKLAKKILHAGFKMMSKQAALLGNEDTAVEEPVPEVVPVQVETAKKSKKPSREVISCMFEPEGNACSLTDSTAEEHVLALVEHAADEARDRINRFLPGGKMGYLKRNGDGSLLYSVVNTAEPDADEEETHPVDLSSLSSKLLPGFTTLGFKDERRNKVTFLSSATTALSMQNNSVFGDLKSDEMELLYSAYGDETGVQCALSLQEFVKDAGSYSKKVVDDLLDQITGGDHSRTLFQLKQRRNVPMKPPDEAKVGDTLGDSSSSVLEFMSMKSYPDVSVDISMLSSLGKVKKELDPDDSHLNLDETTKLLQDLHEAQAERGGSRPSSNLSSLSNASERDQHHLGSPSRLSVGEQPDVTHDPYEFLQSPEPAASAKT

[3] = target: T1, BRD9; assay: BRD9 degradation western blot in ASKA cells (Example 13); assay type: cell-based; parameters: degradation endogenous BRD9 protein in two synovial sarcoma cell lines; endogenous in cells; host or cells: ASKA synovial sarcoma cells; settings: for DC50: read-out: Fitted DC50
Protocol: […] Cells were then harvested, washed with cold PBS, and frozen in cell pellets at −80° C. Lysates were prepared by resuspending thawed pellets in 1×RIPA Lysis and Extraction buffer (Thermo Fisher, Cat #89900) with 1× Halt™ Protease and Phosphatase Inhibitor Cocktail, EDTA-free (Thermo Fisher, Cat #78441) and 1:1000 dilution Pierce™ Universal Nuclease for Cell Lysis 25 ku (Thermo Fisher, Cat #88700). Lysates were incubated on ice for 10 minutes and then centrifuged in 4° C. at maximum speed (15,000 rpm) for 10 minutes. Samples were then analyzed for total protein using BCA protein quantification assay and diluted to 1 μg/μL with lysis buffer and 1× NuPAGE™ LDS Sample Buffer (4×) (Thermo Fisher, Cat #NP0007) and 1×DTT from 30× stock (Cell Signaling Technologies, Cat #14265S). Samples with 20-25 ug of total protein were loaded into 4-12% Bis-Tris Mini-Gel with 1×MES Running buffer and run at 150V for 45 minutes. Gels were transferred using Trans-Blot® Turbo™ Transfer System (semi-dry) at 25V for 10 minutes (High MW setting) on nitrocellulose blots. Blots were blocked in 5% milk in TBST for 1 hour and probed with BRD9 antibody (Bethyl Labs, Cat #A303-781A, 1:750 for SYO1, and Cell Signaling Technologies, Cat #71232S for ASKA) and beta-Actin antibody (Cell Signaling Technologies, Cat #3700, 1:2,000) overnight at 4° C. The next day, blots were washed in TBST 3× and probed with 1:5,000 IRDye® 680LT Goat anti-Rabbit IgG Secondary Antibody (LiCOR, Cat #926-68021) and 1:10,000 IRDye® 800CW Goat anti-Mouse IgG Secondary Antibody (LiCOR, Cat #926-32210) in LiCOR Odyssey® Blocking Buffer (TBS) for 1 hour at room temperature. Blots were washed in TBST 3× and scanned at […] wavelength using LiCOR Odyssey® CLx Imaging System. Western blot signal was quantified using same analyses program included in the same machine. BRD9 signal was quantified by normalizing to beta-actin signal and all samples were normalized to DMSO, set as 100% signal.

[4] = target: T1, BRD9; assay: BRD9 degradation western blot in SYO-1 cells (Example 13); assay type: cell-based; parameters: degradation endogenous BRD9 protein in two synovial sarcoma cell lines; endogenous in cells; host or cells: SYO1 (SYO-1) synovial sarcoma cells; settings: for DC50: read-out: Fitted DC50; for degradation of endogenous BRD9 protein at early time point: two synovial sarcoma cell lines (SYO-1 and ASKA)
Protocol: Synovial sarcoma cells were plated in 6-well plate at […] cells/well and treated with serial concentrations of BRD9 degrader (10 nM top concentration, diluted 1:3) the next day for two time points at 37° C. Cells were then harvested, washed with cold PBS, and frozen in cell pellets at −80° C. Lysates were prepared by resuspending thawed pellets in 1×RIPA Lysis and Extraction buffer (Thermo Fisher, Cat #89900) with 1× Halt™ Protease and Phosphatase Inhibitor Cocktail, EDTA-free (Thermo Fisher, Cat #78441) and 1:1000 dilution Pierce™ Universal Nuclease for Cell Lysis 25 ku (Thermo Fisher, Cat #88700). Lysates were incubated on ice for 10 minutes and then centrifuged in 4° C. at maximum speed (15,000 rpm) for 10 minutes. Samples were then analyzed for total protein using BCA protein quantification assay and diluted to 1 μg/μL with lysis buffer and 1× NuPAGE™ LDS Sample Buffer (4×) (Thermo Fisher, Cat #NP0007) and 1×DTT from 30× stock (Cell Signaling Technologies, Cat #14265S). Samples with 20-25 ug of total protein were loaded into 4-12% Bis-Tris Mini-Gel with 1×MES Running buffer and run at 150V for 45 minutes. Gels were transferred using Trans-Blot® Turbo™ Transfer System (semi-dry) at 25V for 10 minutes (High MW setting) on nitrocellulose blots. Blots were blocked in 5% milk in TBST for 1 hour and probed with BRD9 antibody (Bethyl Labs, Cat #A303-781A, 1:750 for SYO1, and Cell Signaling Technologies, Cat #71232S for ASKA) and beta-Actin antibody (Cell Signaling Technologies, Cat #3700, 1:2,000) overnight at 4° C. The next day, blots were washed in TBST 3× and probed with 1:5,000 IRDye® 680LT Goat anti-Rabbit IgG Secondary Antibody (LiCOR, Cat #926-68021) and 1:10,000 IRDye® 800CW Goat anti-Mouse IgG Secondary Antibody (LiCOR, Cat #926-32210) in LiCOR Odyssey® Blocking Buffer (TBS) for 1 hour at room temperature. Blots were washed in TBST 3× and scanned at […] wavelength using LiCOR Odyssey® CLx Imaging System. Western blot signal was quantified using same analyses program included in the same machine. BRD9 signal was quantified by normalizing to beta-actin signal and all samples were normalized to DMSO, set as 100% signal.

[5] = system: synovial sarcoma cell lines (SYO1, Yamato, HS-SY-II, and ASKA); assay: Growth of synovial sarcoma cell lines, IncuCyte confluency / crystal violet / colony imaging (Example 2); assay type: cell-based; settings: FIGS. 4, 5, 6
Protocol: (§1) Cells were treated with DMSO or the BRD9 degrader, Compound 1, at indicated concentrations, and proliferation was monitored from day 7 to day 14 by measuring confluency overtime using an IncuCyte live cell analysis system (FIG. 4). Growth medium and compounds were refreshed every 3-4 days.
(§2) Cells were seeded into 12-well plates and treated with DMSO, 1 μM BRD9 inhibitor, Compound 2 (also known as BI-7273, see Martin et al, J Med Chem. 59(10):4462-4475 (2016); see structure of compound 2 below), or 1 μM BRD9 degrader, Compound 1.
(§3) The number of cells was optimized for each cell line. Growth medium and compounds were refreshed every 3-5 days. SYO1, Yamato, A549, 293T and HS-SY-II cells were fixed and stained at day 11. ASKA cells were fixed and stained at day 23. Staining was done by incubation with crystal violet solution (0.5 g Crystal Violet, 27 ml 37% Formaldehyde, 100 mL 10×PBS, 10 mL Methanol, 863 dH20 to 1 L) for 30 min followed by 3× washes with water and drying the plates for at least 24 h at room temperature. Subsequently plates were scanned on an Odyssey CLx Imaging system (FIG. 5).
(§4) Cells were seeded into 96-well ultra-low cluster plate (Costar, #7007) in 200 μL complete media and treated at day 2 with DMSO, Staurosporin, or BRD9 degrader, Compound 1, at indicated doses (FIG. 2C). Media and compounds were changed every 5 d and cell colonies were imaged at day 14.

[6] = system: non-synovial control cancer cell lines (293T, A549, G401); assay: Growth of non-synovial control cancer cell lines (Example 2); assay type: cell-based
Protocol: as §1, §2, §3, §4

[7] = system: synovial sarcoma cell lines (SYO1, HS-SY-II, and ASKA); assay: Growth of synovial sarcoma cell lines, crystal violet day 14 (Example 3); assay type: cell-based; settings: daily treatment
Protocol: (§5) Procedure: Cells were seeded into 6-well or 12-well plates and were treated daily with a BRD9 degrader (Compound 1), a bromo-domain BRD9 binder (Compound 2), E3 ligase binder (lenalidomide), DMSO, or staurosporin (positive control for cell killing), at indicated concentrations. The number of cells was optimized for each cell line. Growth media was refreshed every 5 days. By day 14, medium was removed, cells were washed with PBS, and stained using 500 μL of 0.005% (w/v) crystal violet solution in 25% (v/v) methanol for at least 1 hour at room temperature. Subsequently plates were scanned on an Odyssey CLx Imaging system.

[8] = system: non-synovial control cancer cell lines (RD, HCT116, and Calu6); assay: Growth of non-synovial control cancer cell lines, crystal violet day 14 (Example 3); assay type: cell-based; settings: daily treatment
Protocol: as §5

SMILES	% Enantiomer 2 ([1]; 2 h)	% Enantiomer 2 ([1]; 6 h)	pharmacodynamic activity, BRD9 protein level by western blot [2]	DC50 ([3]; 0.5 h)	BRD9 degradation activity ([3]; 30 minutes, up to 10 μM)	DC50 ([3]; 2 h)	DC50 ([4]; SYO-1, 1 h)	DC50 ([4]; SYO-1, 6 h)	degradation of endogenous BRD9 protein at early time point [4]	% Enantiomer 2 ([1]; 0 h)	% Enantiomer 2 ([1]; 0.5 h)	duration of BRD9 degradation after a single dose ([2]; single dose i.v.)	difference in DC50 between Enantiomer 1 and Enantiomer 2 ([3]; 2 h)	difference in DC50 between Enantiomer 1 and Enantiomer 2 ([4]; SYO1, 6 h)	BRD9 degradation compared to racemic compound D1 ([4]; SYO-1, 1 or 6 hours (FIGS. 16 and 17))	active enantiomer in degrading BRD9 in cells ([4]; overall conclusion of Example 13)	growth of synovial sarcoma cell lines [5]	growth of non-synovial control cancer cell lines [6]	growth of synovial sarcoma cell lines [7]	growth of non-synovial control cancer cell lines [8]
COc1cc(-c2cn(C)c(=O)c3cnc(N4CCC4)cc23)cc(OC)c1CN1CCC(CN2CCC3(CC2)CN(c2ccc4c(c2)C(=O)N([C@H]2CCC(=O)NC2=O)C4)C3)CC1 (single isomer, unassigned; enantiomer 1) [Enantiomer 1]	12%	30%	inactive and did not degrade BRD9 protein	> 10 nM	no discernable activity	0.38 nM	2.8 nM	0.066 nM	largely inactive or with much reduced degradation potency											
COc1cc(-c2cn(C)c(=O)c3cnc(N4CCC4)cc23)cc(OC)c1CN1CCC(CN2CCC3(CC2)CN(c2ccc4c(c2)C(=O)N([C@@H]2CCC(=O)NC2=O)C4)C3)CC1 (single isomer, unassigned; enantiomer 2) [Enantiomer 2]	82%	63%	significant activity; also recorded: equipotent to racemic compound D1	0.34 nM		0.012 nM	0.092 nM	0.023 nM	much more potent	99%	95%	degraded BRD9 up to 72 hours after a single dose	about 32 fold	ca. 3 fold	slightly better than its racemic parent compound D1 in degrading BRD9 but overall comparable	active enantiomer				
COc1cc(-c2cn(C)c(=O)c3cnccc23)cc(OC)c1CN(C)C [Compound 2]																	inhibition of the growth of the cells	does not result in inhibition of the growth	inhibition of the growth of the cells	did not result in inhibition of the growth

Reference: US11767330B2, “Citrate salt, pharmaceutical compositions, and methods of making and using the same” (Foghorn Therapeutics Inc., priority 2021, dated 2023)
